From patent US12357666B1, “Traditional Chinese herbal plant composition for improving symptoms of liver cancer patients and compatibility method thereof” (The First Hospital of China Medical University, priority 2024, dated 2025)

What was measured:
Hep G2 cell line = experiment: Anti-tumor effect on tumor mice (subcutaneous Hep G2 model): tumor mass and tumor inhibition rate; format: in vivo, BALB/c nude mice; conditions: 28 d
From the text: The effect example explored the anti-tumor effect of the herbal plant compositions of Embodiment 1 and Comparative Examples 1 to 3 on tumor mice, and a specific process is as follows.
(§1) Totally 90 male BALB/c nude mice aged 5 weeks and with body weight of 19-22 g were used.
(§2) A total of 80 BALB/c nude mice were randomly selected and injected subcutaneously with Hep G2 cell line (5×10^6 cells) in the right armpits.
Dosing Criteria: the conventional gavage dose of mice was […]. Generally, it is also necessary to increase the dose of the original medicinal material of the herbal plant composition by 1 time and decrease the dose of the original medicinal material of the herbal plant composition by 1 time for gavage.
Low-dose Embodiment 1 Herbal Plant Composition Group: 10 mice, administered 5.27 g/kg Embodiment 1 herbal plant composition by gavage.
Medium-dose Embodiment 1 Herbal Plant Composition Group: 10 mice, administered 10.53 g/kg Embodiment 1 herbal plant composition by gavage.
High-dose Embodiment 1 Herbal Plant Composition Group: 10 mice, administered 21.06 g/kg Embodiment 1 herbal plant composition by gavage.
High-dose Comparative Example 1 Herbal Plant Composition Group: 10 mice, administered 21.06 g/kg Comparative Example 1 herbal plant composition by gavage.
High-dose Comparative Example 2 Herbal Plant Composition Group: 10 mice, administered 21.06 g/kg Comparative Example 2 herbal plant composition by gavage.
High-dose Comparative Example 3 Herbal Plant Composition Group: 10 mice, administered 21.06 g/kg Comparative Example 3 herbal plant composition by gavage.
Western medicine control group: 10 mice, administered 0.03 g/kg 5-fluorouracil by gavage.
After 28 d of continuous administration, the mice in each group were weighed and killed by cervical dissection. […] After washing, the tumors and the organs were dried with filter paper, weighed to obtain mass and recorded, and the tumor inhibition rate and organ index were calculated. […]

[1] = Organ index (lung, liver, heart, kidney) of tumor mice; format: in vivo, BALB/c nude mice; conditions: 28 d
From the text: as §1, §2
After 28 d of continuous administration, the mice in each group were weighed and killed by cervical dissection. Tumors and organs (lung, liver, heart and kidney) of the mice in each group were removed under sterile conditions, and washed with physiological saline. After washing, the tumors and the organs were dried with filter paper, weighed to obtain mass and recorded, and the tumor inhibition rate and organ index were calculated. The tumor mass of the mice was the average value of the tumor mass of each group of mice. Tumor inhibition rate=(tumor mass of mice in the model group-tumor mass of mice in the test group)/tumor mass of mice in the model group×100%. Organ index (mg/g)=organ mass (mg)/body mass (g) of mice.

Cardiac Index ([1]; 0.03 g/kg by gavage): 5.13 mg/g
Liver index ([1]; 0.03 g/kg by gavage): 42.78 mg/g
Lung index ([1]; 0.03 g/kg by gavage): 5.96 mg/g
Renal index ([1]; 0.03 g/kg by gavage): 17.69 mg/g
liver index, renal index, lung index and cardiac index compared to the model group (in words) ([1]; Table 3, gavage): no significant change
Structure (SMILES): O=c1[nH]cc(F)c(=O)[nH]1 [Western medicine control group, 5-fluorouracil]
Tumor mass (Hep G2 cell line; 0.03 g/kg by gavage, Hep G2 tumor nude mice): 0.27 g
tumor inhibition rates in mice (in words) (Hep G2 cell line; Table 2, gavage): relatively high
Inhibition rate (%) (Hep G2 cell line; tumor inhibition vs model group, 0.03 g/kg by gavage): 48.07%
